Measurements: ChEMBL document CHEMBL4033686, “Phenylbenzenesulfonates and -sulfonamides as 17β-hydroxysteroid dehydrogenase type 2 inhibitors: Synthesis and SAR-analysis” (Bioorg Med Chem Lett, 2017)

Legend:
Format in all cases: cell-based
[1] = target: T1, 17-beta-hydroxysteroid dehydrogenase type 2 (Homo sapiens) (UniProt P37059); test: Inhibition of recombinant human 17beta-HSD2 expressed in HEK293 cells assessed as residual activity at 20 uM using estradiol as substrate after 10 mins in presence of radiolabeled tracer substrate by scintillation counting method relative to control
T1 sequence (whole entry): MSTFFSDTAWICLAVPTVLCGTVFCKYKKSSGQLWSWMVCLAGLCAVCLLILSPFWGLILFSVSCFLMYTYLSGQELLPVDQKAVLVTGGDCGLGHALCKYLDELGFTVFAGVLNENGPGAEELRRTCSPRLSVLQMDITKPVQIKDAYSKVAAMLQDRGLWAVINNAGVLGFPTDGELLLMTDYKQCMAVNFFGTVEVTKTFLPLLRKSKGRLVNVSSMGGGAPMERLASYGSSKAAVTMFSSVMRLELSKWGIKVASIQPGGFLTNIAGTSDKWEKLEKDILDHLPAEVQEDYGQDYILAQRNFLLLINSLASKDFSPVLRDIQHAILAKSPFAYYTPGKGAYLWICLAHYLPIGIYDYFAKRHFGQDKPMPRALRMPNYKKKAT

[2] = target: T2, 17-beta-hydroxysteroid dehydrogenase type 2 (Homo sapiens, UniProt P37059); test: Inhibition of recombinant human 17beta-HSD2 expressed in HEK293 cells using estradiol as substrate after 10 mins in presence of radiolabeled tracer substrate by scintillation counting method
T2 sequence (P37059 whole entry): T1 sequence (whole entry)

[3] = target: T3, 17-beta-hydroxysteroid dehydrogenase type 1 (Homo sapiens) (UniProt P14061); test: Inhibition of recombinant human 17beta-HSD1 expressed in HEK293 cells assessed as residual activity at 20 uM using estrone as substrate after 10 mins in presence of radiolabeled tracer substrate by scintillation counting method relative to control
T3 sequence (whole entry): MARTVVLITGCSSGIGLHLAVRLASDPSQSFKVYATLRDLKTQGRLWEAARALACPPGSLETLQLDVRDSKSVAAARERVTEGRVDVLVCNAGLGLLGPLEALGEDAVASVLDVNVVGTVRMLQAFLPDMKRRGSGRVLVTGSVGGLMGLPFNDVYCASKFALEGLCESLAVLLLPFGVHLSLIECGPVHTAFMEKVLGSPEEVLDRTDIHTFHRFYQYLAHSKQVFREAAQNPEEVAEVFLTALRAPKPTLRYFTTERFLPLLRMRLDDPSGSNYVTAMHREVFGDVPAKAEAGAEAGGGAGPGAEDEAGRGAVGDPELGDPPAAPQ

[4] = target: 11-beta-hydroxysteroid dehydrogenase 1 (Homo sapiens) (UniProt P28845); test: Inhibition of recombinant human 11beta-HSD1 expressed in HEK293 cells assessed as residual activity at 20 uM using cortisone as substrate after 10 mins in presence of radiolabeled tracer substrate by scintillation counting method relative to control
[5] = target: T4, 11beta-HSD2 (11-beta-hydroxysteroid dehydrogenase type 2) (Homo sapiens, UniProt P80365); test: Inhibition of recombinant human 11beta-HSD2 expressed in HEK293 cells assessed as residual activity at 20 uM using cortisol as substrate after 10 mins in presence of radiolabeled tracer substrate by scintillation counting method relative to control; settings: HEK293 cells expressing recombinant human 11beta-HSD2, probe cortisol, read-out: Activity
T4 sequence (P80365 whole entry): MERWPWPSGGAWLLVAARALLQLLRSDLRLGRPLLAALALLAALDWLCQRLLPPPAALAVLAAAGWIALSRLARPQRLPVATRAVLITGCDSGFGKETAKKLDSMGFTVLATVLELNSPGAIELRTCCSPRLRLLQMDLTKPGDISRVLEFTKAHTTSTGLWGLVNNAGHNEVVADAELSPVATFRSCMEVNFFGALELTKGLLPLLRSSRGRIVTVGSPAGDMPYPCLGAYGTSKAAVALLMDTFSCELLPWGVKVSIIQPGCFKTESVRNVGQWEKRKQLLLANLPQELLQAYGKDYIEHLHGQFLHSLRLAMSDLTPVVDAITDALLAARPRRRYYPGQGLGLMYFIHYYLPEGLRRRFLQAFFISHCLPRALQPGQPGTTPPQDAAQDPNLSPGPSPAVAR

Homo sapiens [6] = species on record: Homo sapiens; test: Selectivity index, ratio of compound effect for inhibition of recombinant human 17beta-HSD1 expressed in HEK293 cells assessed as residual activity to compound effect for inhibition of 17beta-HSD2 expressed in HEK293 cells assessed as residual activity
Homo sapiens [7] = species on record: Homo sapiens; test: Selectivity index, ratio of compound effect for inhibition of recombinant human 11beta-HSD1 expressed in HEK293 cells assessed as residual activity to compound effect for inhibition of 17beta-HSD2 expressed in HEK293 cells assessed as residual activity
Homo sapiens [8] = species on record: Homo sapiens; test: Selectivity index, ratio of compound effect for inhibition of recombinant human 11beta-HSD2 expressed in HEK293 cells assessed as residual activity to compound effect for inhibition of 17beta-HSD2 expressed in HEK293 cells assessed as residual activity

11-beta-hydroxysteroid dehydrogenase 1 (Homo sapiens), sequence (P28845 whole entry, looked up): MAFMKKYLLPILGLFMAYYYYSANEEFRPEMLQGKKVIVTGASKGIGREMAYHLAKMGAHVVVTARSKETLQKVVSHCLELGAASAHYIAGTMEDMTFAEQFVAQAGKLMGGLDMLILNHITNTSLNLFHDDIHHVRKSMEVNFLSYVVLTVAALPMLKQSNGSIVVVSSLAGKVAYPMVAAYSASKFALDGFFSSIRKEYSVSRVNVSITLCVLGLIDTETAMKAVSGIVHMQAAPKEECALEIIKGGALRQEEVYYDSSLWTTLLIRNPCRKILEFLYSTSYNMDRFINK

SMILES | Activity [1] [%] | IC50 [2] [µM] | Activity [3] [%] | Activity [4] [%] | activity at 10 min, 20 µM [5] [%] | Selectivity Index (Homo sapiens [6]) | Selectivity Index (Homo sapiens [7]) | Selectivity Index (Homo sapiens [8])
Cc1ccc(NS(=O)(=O)c2ccc(C(C)(C)C)cc2)c(O)c1 | 22 | 4.4 | 35 | 24 | 62 | 1.6 | 1.1 | 2.8
CC(C)(C)c1ccc(S(=O)(=O)Nc2cc(Cl)ccc2O)cc1 | 6 | 0.8 | 15 | 35 | 7 | 2.5 | 5.8 | 1.2
CC(C)(C)c1ccc(S(=O)(=O)Nc2cc(Cl)ccc2N)cc1 | 22 to 28 | 5.58 | 46 | 28 | 75 | 2.1 | 1.3 | 3.4
CC(C)(C)c1ccc(S(=O)(=O)Nc2cc(Cl)c(Cl)cc2N)cc1 | 11 | 4.65 | 23 | 74 | 21 | 2.1 | 6.7 | 1.9
Cc1cc(S(=O)(=O)Nc2cccc(O)c2)c(C)cc1Cl | 10 |  |  |  |  |  |  | 
Cc1cc(C)c(O)c(NS(=O)(=O)c2ccc(C(C)(C)C)cc2)c1 | 18 | 5.19 | 19 | 43 | 37 | 1.1 | 2.4 | 2.1
Cc1ccc(O)c(NS(=O)(=O)c2ccc(C(C)(C)C)cc2)c1 | 13 | 4.09 | 38 | 46 | 63 | 2.9 | 3.5 | 4.8
Cc1cc(N)c(NS(=O)(=O)c2ccc(C(C)(C)C)cc2)cc1C | 58 |  |  |  |  |  |  | 
O=c1cc(-c2ccc(O)cc2)oc2cc(O)cc(O)c12 |  |  | 11 |  |  |  |  | 

The next lines start with results.

Activity [1] [%] | IC50 [2] [µM] | Activity [3] [%] | Activity [4] [%] | activity at 10 min, 20 µM [5] [%] | SMILES | Selectivity Index (Homo sapiens [6]) | Selectivity Index (Homo sapiens [7]) | Selectivity Index (Homo sapiens [8])
5 | 1.23 | 41 | 37 | 83 | CC(C)(C)c1ccc(S(=O)(=O)Nc2ccccc2O)cc1 | 8.2 | 7.4 | 16.6
49 |  |  |  |  | Cc1cc(C)c(OS(=O)(=O)c2ccc(C(C)(C)C)cc2)c(N)c1 |  |  | 
36 |  |  |  |  | Cc1ccc(N)c(OS(=O)(=O)c2ccc(C(C)(C)C)cc2)c1 |  |  | 
43 |  |  |  |  | CC(C)(C)c1ccc(S(=O)(=O)Oc2ccc3ccccc3c2N)cc1 |  |  | 
46 |  |  |  |  | CC(C)(C)c1ccc(S(=O)(=O)Nc2ccccc2N)cc1 |  |  | 
44 |  |  |  |  | CC(C)(C)c1ccc(S(=O)(=O)Oc2ccc(Cl)cc2N)cc1 |  |  | 
86 |  |  |  |  | CC(C)(C)c1ccc(S(=O)(=O)Oc2ccc(-c3ccccc3)cc2N)cc1 |  |  | 
37 |  |  |  |  | Cc1ccc(OS(=O)(=O)c2ccc(C(C)(C)C)cc2)c(N)c1 |  |  | 
7 | 2.9 | 46 | 21 | 21 | CC(C)(C)c1ccc(S(=O)(=O)Nc2c(O)ccc3ccccc23)cc1 | 8.6 | 3 | 3
35 |  |  |  |  | CC(C)(C)c1ccc(S(=O)(=O)Nc2ccc(Cl)cc2N)cc1 |  |  | 
36 |  | 56 | 26 | 97 | CC(C)(C)c1ccc(S(=O)(=O)Nc2ccc(F)cc2N)cc1 | 1.6 | 0.7 | 2.7
33 |  |  |  |  | CC(C)(C)c1ccc(S(=O)(=O)Oc2ccccc2N)cc1 |  |  | 
2 | 1.25 | 13 | 62 | 3 | CC(C)(C)c1ccc(S(=O)(=O)Nc2cc(-c3ccccc3)ccc2O)cc1 | 6.5 | 31 | 1.5
